According to PubChem BioAssay (NCI):
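Assay format: 96-well plates, 48-hour exposure. TGI is the concentration that stops growth completely.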

Key:
Test in all cases: NCI anticancer screen, dose series, 48 h
BT-549 breast = system: BT-549 breast
DU-145 prostate = system: DU-145 prostate
EKVX NSCLC = system: EKVX NSCLC
HOP-62 NSCLC = system: HOP-62 NSCLC
IGROV1 ovarian = system: IGROV1 ovarian
K-562 leukemia = system: K-562 leukemia
MALME-3M melanoma = system: MALME-3M melanoma
MCF7 breast = system: MCF7 breast
MDA-MB-435 = system: MDA-MB-435
NCI-H226 lung = system: NCI-H226 lung
NCI-H23 lung = system: NCI-H23 lung
NCI-H460 lung = system: NCI-H460 lung
NCI/ADR-RES ovarian = system: NCI/ADR-RES ovarian
SF-295 CNS = system: SF-295 CNS
SK-MEL-2 melanoma = system: SK-MEL-2 melanoma
SK-MEL-28 melanoma = system: SK-MEL-28 melanoma
SK-MEL-5 melanoma = system: SK-MEL-5 melanoma
SK-OV-3 ovarian = system: SK-OV-3 ovarian
UACC-257 melanoma = system: UACC-257 melanoma

| SMILES | TGI (BT-549 breast) | TGI (DU-145 prostate) | TGI (EKVX NSCLC) | TGI (HOP-62 NSCLC) | TGI (IGROV1 ovarian) | TGI (K-562 leukemia) | TGI (MALME-3M melanoma) | TGI (MCF7 breast) | TGI (MDA-MB-435) | TGI (NCI-H226 lung) | TGI (NCI-H23 lung) | TGI (NCI-H460 lung) | TGI (NCI/ADR-RES ovarian) | TGI (SF-295 CNS) | TGI (SK-MEL-2 melanoma) | TGI (SK-MEL-28 melanoma) | TGI (SK-MEL-5 melanoma) | TGI (SK-OV-3 ovarian) | TGI (UACC-257 melanoma) |
| --- | --- | --- | --- | --- | --- | --- | --- | --- | --- | --- | --- | --- | --- | --- | --- | --- | --- | --- | --- |
| CCOc1cc2c(cc1O)C(=O)C[C@@H]1[C@@H]2CC[C@]2(C)[C@@H](O)CC[C@@H]12 | 28.9 µM | > 51.9 µM | > 100 µM | > 100 µM | > 30.3 µM | 2.27 µM | > 9.3 µM | > 100 µM | 0.222 µM | 17 µM | 43.7 µM | 12.4 µM | 8.27 µM | 9.52 µM | > 58.1 µM | > 73.5 µM | 7.11 µM | > 73.6 µM | > 100 µM |
| COCCCNc1c2ccccc2nc2ccccc12 | 53.2 µM | 9.75 µM | 27.3 µM | 12.2 µM | 22.9 µM | 23.6 µM | 7.17 µM | 5.27 µM | 12.7 µM | – | 10.3 µM | 3.55 µM | 33.6 µM | 14.9 µM | 4.89 µM | 6.54 µM | 4.51 µM | 12.4 µM | 7.03 µM |
| Cc1c(C#N)c2nc3ccccc3n2c(=O)/c1=C/Nc1ccc(Cl)cc1 | 99.6 µM | – | > 100 µM | 33.1 µM | > 100 µM | > 100 µM | > 100 µM | > 100 µM | > 100 µM | > 100 µM | 59.8 µM | > 100 µM | > 100 µM | 61.5 µM | 46.6 µM | > 100 µM | > 100 µM | 32.4 µM | > 100 µM |
| COc1ccc(C=O)cc1OS(=O)(=O)C(F)(F)C(F)(F)C(F)(F)C(F)(F)F | > 100 µM | > 100 µM | > 82.6 µM | > 79.8 µM | > 67.5 µM | – | > 69 µM | > 100 µM | 48.9 µM | > 100 µM | > 100 µM | > 93.4 µM | 58.3 µM | 53 µM | 43.9 µM | 97.5 µM | 30.8 µM | > 90.2 µM | > 100 µM |
| CC/C=C\C=C/C(=O)N/C=C/CCC | > 100 µM | > 100 µM | > 100 µM | > 100 µM | > 100 µM | > 100 µM | > 100 µM | > 100 µM | > 100 µM | > 100 µM | > 100 µM | > 100 µM | > 100 µM | – | > 100 µM | > 100 µM | – | > 100 µM | > 100 µM |
| COC(=O)[C@H](Cc1ccccc1)NC(=O)N(CCNC(=O)OC(C)(C)C)c1ccccc1 | > 100 µM | > 100 µM | > 100 µM | > 100 µM | > 100 µM | > 100 µM | > 100 µM | > 100 µM | > 100 µM | > 100 µM | > 100 µM | > 100 µM | > 100 µM | > 100 µM | > 100 µM | > 100 µM | > 100 µM | > 100 µM | – |
| CCOC(=O)CC1Nc2ccccc2C12CCc1c([nH]c3ccccc13)C2C(=O)OCC (stereo not given) | > 100 µM | > 100 µM | > 100 µM | > 100 µM | 61.7 µM | > 100 µM | 51.6 µM | > 100 µM | > 100 µM | – | > 100 µM | > 100 µM | > 100 µM | 22.5 µM | > 100 µM | > 100 µM | > 100 µM | > 100 µM | > 100 µM |
| Cc1ccc(S(=O)(=O)Nn2c(S)c(C#N)c(-c3ccc(Cl)cc3)c(C#N)c2=O)cc1 | 41.9 µM | > 100 µM | > 100 µM | – | 59.4 µM | > 100 µM | > 100 µM | > 100 µM | 86.9 µM | 66.5 µM | > 100 µM | 31.4 µM | 71.5 µM | > 100 µM | > 100 µM | > 100 µM | 42.2 µM | > 100 µM | > 100 µM |
| C=C1CC[C@@H]2[C@](C)(COC(=O)CCC(=O)O)CCC[C@@]2(C)[C@@H]1CCC1=CC(=O)OC1 | > 100 µM | 38.7 µM | > 100 µM | > 100 µM | > 100 µM | > 100 µM | > 100 µM | > 100 µM | > 100 µM | > 100 µM | > 100 µM | – | > 100 µM | > 100 µM | > 100 µM | > 100 µM | > 100 µM | > 100 µM | > 100 µM |
| O=C(Nc1ccc(Cl)cc1)c1cc(S(=O)(=O)N2CCNNC2=O)c(S)cc1Cl | > 100 µM | > 100 µM | > 100 µM | – | > 100 µM | > 100 µM | > 100 µM | > 100 µM | > 100 µM | > 100 µM | – | > 100 µM | > 100 µM | > 100 µM | > 100 µM | > 100 µM | > 100 µM | – | > 100 µM |
| C=C(C)COc1cc(NC(=S)OC(C)C)ccc1Cl | 24.3 µM | 31.1 µM | 24.8 µM | – | 31 µM | 38.7 µM | – | 29.3 µM | 28.6 µM | 32.7 µM | 31.3 µM | 30.8 µM | 30.1 µM | 29.3 µM | 27.2 µM | 31.8 µM | 38.4 µM | 38.1 µM | 31.8 µM |
| O=C(CC(C(=O)c1cccs1)c1ccc2c(c1)OCO2)c1ccccc1 (stereo not given) | > 100 µM | > 100 µM | – | > 100 µM | > 100 µM | – | > 100 µM | > 100 µM | > 100 µM | > 100 µM | > 100 µM | > 100 µM | > 100 µM | > 100 µM | > 100 µM | > 100 µM | > 100 µM | > 100 µM | > 100 µM |
| Cn1c(=O)cc(Nc2ccc(N)cc2)[nH]c1=O | > 100 µM | – | > 100 µM | > 100 µM | > 100 µM | > 100 µM | > 100 µM | > 100 µM | > 100 µM | > 100 µM | > 100 µM | > 100 µM | > 100 µM | > 100 µM | > 100 µM | > 100 µM | > 100 µM | > 100 µM | > 100 µM |
